From ChEMBL document CHEMBL3872281, “A one-pot laccase-catalysed synthesis of coumestan derivatives and their anticancer activity” (Bioorg Med Chem, 2017) come the findings set out here.

Experiment [1] has as its target T1, Arachidonate 5-lipoxygenase (Sus scrofa) (UniProt K7GQZ4).
T1 sequence (whole entry): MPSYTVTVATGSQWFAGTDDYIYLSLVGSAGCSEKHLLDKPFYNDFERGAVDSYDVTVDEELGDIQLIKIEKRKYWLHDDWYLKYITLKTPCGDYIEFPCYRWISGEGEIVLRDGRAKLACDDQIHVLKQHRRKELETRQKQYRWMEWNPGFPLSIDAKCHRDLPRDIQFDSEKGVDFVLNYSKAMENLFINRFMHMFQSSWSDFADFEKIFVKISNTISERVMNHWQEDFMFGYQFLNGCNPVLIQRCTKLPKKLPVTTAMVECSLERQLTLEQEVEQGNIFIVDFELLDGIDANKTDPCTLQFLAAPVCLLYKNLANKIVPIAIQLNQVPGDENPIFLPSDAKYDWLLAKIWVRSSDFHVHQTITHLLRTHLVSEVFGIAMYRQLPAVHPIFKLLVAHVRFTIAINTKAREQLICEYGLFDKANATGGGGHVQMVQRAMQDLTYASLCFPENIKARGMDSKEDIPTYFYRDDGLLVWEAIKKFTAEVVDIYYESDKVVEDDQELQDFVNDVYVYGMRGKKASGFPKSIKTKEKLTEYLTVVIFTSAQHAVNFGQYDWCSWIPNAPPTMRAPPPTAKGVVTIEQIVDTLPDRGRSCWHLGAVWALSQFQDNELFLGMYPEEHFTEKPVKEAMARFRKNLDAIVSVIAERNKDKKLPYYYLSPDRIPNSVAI
The experiment is described as follows: Potency index, ratio of coumestrol IC50 to compound IC50 for 5-lipoxygenase in pig leukocytes. It counts as cell-based.

For experiment [2], the target named is T2, Arachidonate 5-lipoxygenase (Sus scrofa, UniProt K7GQZ4).
T2 sequence (K7GQZ4 whole entry): T1 sequence (whole entry)
Description: Inhibition of 5-lipoxygenase in pig leukocytes using arachidonic acid as substrate. It counts as cell-based.

With `COc1cc(O)c2c(c1)oc(=O)c1c3cc(O)c(O)cc3oc21` [WEDELOLACTONE], the Ratio IC50 in experiment [1] came to 40. Moreover, in experiment [2], the IC50 (commonly the concentration at which inhibition is half-maximal) is 2500 nM.
